Values of other authors in patent US9485971B2, “Fumarylacetoacetate hydrolase (Fah)-deficient pigs and uses thereof” (May Foundation for Medical Education and Research, priority 2010, dated 2016).

Tested on: Fah-deficient mice

Compound: O=C1CCCC(=O)C1C(=O)c1ccc(C(F)(F)F)cc1[N+](=O)[O-] [NTBC, 2-(2-nitro-4-trifluoro-methyl-benzoyl)-1,3 cyclohexanedione]
- phenotype at suboptimal doses of NTBC (Fah-/- mice, suboptimal doses): develop HCC and fibrosis
- effect on liver function and neonatal lethality (Fah-deficient mice treated with NTBC): restores liver function and abolishes neonatal lethality
- hepatocellular carcinoma penetrance rate (suboptimal NTBC dose of 0.2 mg/kg/day, mice, within the first six months of life): exceeding 50%
